These results are taken from patent US4285953A, “Inhibition of biosynthesis of triglycerides by certain N-β-phenethyl-N-pyridylalkylamines” (Shell Oil Company, priority 1980, dated 1981).

The subject of this assay is enzyme prepared from pig adipose tissue (synthesis of triglycerides). Briefly: Inhibition of triglyceride synthesis by enzyme preparation from pig adipose tissue (14C-glycerol-3-phosphate incorporation). Type of assay: biochemical. The note with it: test compound 1000 micrograms per milliliter, 5% DMSO, 8 minutes at 37° C; compared to controls without test compound; average of two animals. The procedure:
An enzyme was prepared by homogenizing one gram of slices from pig adipose tissue, each slice being approximately 0.3 mm thick, in onemilliliter portions of a liquid medium (Liquid A). The homogenate then was centrifuged (10.000 g×15 minutes), and the supernatant phase (the enzyme) was poured through cheesecloth to remove fat that had risen to the top of the centrifuge tubes.
Liquid A had the following composition (in water):
0.15 M potassium chloride, 1 mM ethylenediaminetetracetic acid, […] Hepes (N-2-hydroxyethylpiperazine-N'-2-ethanesulfonic acid), 1 mM DTT (dithiothreitol), pH=7.0.
A solution of the test compound (Liquid B) was prepared: 10 milligrams of test compound plus 0.5 milliliter dimethylsulfoxide (DMSO) plus 1.83 milliliters of glass-distilled water.
A premix (Liquid C) was freshly prepared before each test, from the following components: […]
0.25 milliliter of enzyme then was added. […] Ten milliliters of a 2:1 (v/v) mixture of toluene and Triton X-100 containing 0.27% New England Nuclear Omnifluor was added, and the radioactivity was determined in a liquid scintillation counter. […]
The percent inhibition by the test compound compared to the controls (no test compound) was determined.

Turning to `Cc1ccc(CC(C)NCCCC(c2ccccc2)c2ccccn2)cc1.O=C(O)/C=C\C(=O)O` (centres unmarked) [Compound 1, N-(1-methyl-2-(4-methylphenyl)ethyl)-delta-phenyl-2-pyridinebutanamine, maleic acid salt], the “Percent Inhibition” value is 97. Regarding `CC(C)(Cc1ccc(Cl)cc1)NCCCC(c1ccccc1)c1ccccn1.O=C(O)/C=C\C(=O)O` (centres unmarked) [Compound 2, N-(2-(4-chlorophenyl)-1,1-dimethylethyl)-delta-phenyl-2-pyridinebutanamine, maleic acid salt], the “Percent Inhibition” value came out at 93.
